How the values were obtained:
[1] = tested on: Park7 (DJ-1); test: RT-PCR of Park7 (DJ-1) expression, atrazine-damaged cells; assay type: cell-based, human; settings: 1 μg/ml
Experimental: (§1) Particularly, SH-SY5Y cells were cultured by the same manner as described in Experimental Example <1-2>, and mitochondrial malfunction was induced. Then, the cells with the malfunctioned mitochondria were suspended in TRIzol (Invitrogen, USA) and total RNA was extracted therefrom according to the manufacturer's protocol. […] PCR was performed with GeneAmp PCR system 9700 (Applied Biosystem, USA) under the required optimum condition by using the synthesized cDNA as a template in the presence of the forward and reverse primers listed in Table 5 below, leading to the amplification of COX III and Park? (DJ-1) genes. The amplified PCR products were electrophoresed on 1.5% agarose gel. The relative concentration was measured by using an image densitometer (Alpha Ease FC software; Alpha Innotech, USA) under UV. The level of mRNA was standardized by comparison with the level of 18S rRNA. The normal control was not treated with the extract of the invention or the active component thereof but instead treated with DMSO alone. The negative control was treated with 50 μg/ml of atrazine alone to induce mitochondrial damage and not treated with the extract or the active component thereof. The gene expression level was investigated by the same manner as described above.

[2] = tested on: SH-SY5Y cells; test: ATP assay, atrazine-induced loss of intracellular ATP; assay type: cell-based, human; settings: treatment 1 μg/ml, inducer atrazine 50 μg/ml
Experimental: Particularly, SH-SY5Y cells were cultured by the same manner as described in Experimental Example <1-2>, to which 50 μg/ml of atrazine was treated to induce malfunction of mitochondria. Then, 100 μl of the cell lysate obtained from the cells with the malfunctioned mitochondria was mixed with 100 μl of luciferin-luciferase by using ATP bioluminescent somatic cell assay kit (Sigma, USA), followed by culture at 20° C. for 10 minutes. The supernatant was obtained. Fluorescence signal was measured by using LB 9501 Lumat luminometer (Berthold, Germany). The fluorescence of the control well containing the cell free medium was used as the background. The measured values were calculated by subtracting the background, and the amount of ATP was normalized to the protein concentration. The normal control was not treated with the extract of the invention or the active component thereof but instead treated with DMSO alone. All the results were presented as % by the normal control to present the intracellular ATP level. The negative control was treated with 50 μg/ml of atrazine alone to induce mitochondrial damage and not treated with the extract or the active component thereof. The Intracellular ATP level was measured by the same manner as described above.

[3] = tested on: SH-SY5Y, the human neuroblastoma cell line; test: Cell survival rate (calcein) in normal cells, cytotoxicity; assay type: cell-based; settings: 1 μg/ml
Experimental: Particularly, SH-SY5Y, the human neuroblastoma cell line, was inoculated in DMEM/F12 (Dulbeco's Modified Eagle's Medium & Ham's F12; Gibco, USA) supplemented with 10% FBS, followed by culture in a 37° C., 5% CO2/95% air (O2) incubator. Then, the cultured cells were transferred into a serum free medium at the density of 2.5×10^4 cells/well. […] The cells were collected and the cell survival rate was measured by using calcein. The survival rate of the cells that were increased or decreased compared with that of the normal control cells not-treated with the extract or its active component above and instead treated with DMSO was calculated and presented as percentage (%). Particularly, SH-SY5Y cells were cultured by the same manner as described in Experimental Example <1-1>. The cultured cells were transferred in a serum free medium at the density of 2.5×10^4 cells/well. […] The cells were collected and the cell survival rate was measured by using calcein. The cell survival rate that was increased or decreased compared with that of the normal control group not-treated with the extract or its active component above and instead treated with DMSO was calculated and presented as percentage (%).

[4] = tested on: SH-SY5Y, the human neuroblastoma cell line; test: MTT assay, atrazine-induced mitochondria complex 1 damage; assay type: cell-based; settings: treatment 1 μg/ml, inducer atrazine 50 μg/ml
Experimental: Particularly, SH-SY5Y, the human neuroblastoma cell line, was inoculated in DMEM/F12 (1:1, Dulbeco's Modified Eagle's Medium & Ham's F12; Gibco, USA) supplemented with 10% FBS, followed by culture in a 37° C., 5% CO2/95% air (O2) incubator. Then, the cultured cells were transferred into a serum free medium at the density of 1×10^5 cells/well. […] Sigma, USA), followed by culture for 4 hours. Then, the MTT formazan precipitate formed by survived cells was dissolved in 100 μl of 0.04 N HCl/isopropanol. OD540 was measured with an ELISA microplate reader (Molecular Devices, USA). The damage of mitochondria complex 1 was confirmed to see how the damage level was either increased or decreased, compared with the normal control group treated with DMSO without the extract or its active component. In the meantime, the negative control group was treated with 50 μg/ml of atrazine alone to induce mitochondrial damage and was not treated with the extract or its active component. Then, MTT assay was performed by the same manner as described above.

[5] = tested on: cytochrome c oxidase subunit III (COX III); test: RT-PCR of COX III expression, atrazine-damaged cells; assay type: cell-based, human; settings: 1 μg/ml
Experimental: as §1

[6] = tested on: BV2 cells; test: MTT assay, LPS-induced inflammatory response; assay type: cell-based, mouse; settings: BV2, treatment 1.0 μg/ml, inducer LPS 100 ng/ml
Experimental: Particularly, BV2 cells were cultured by the same manner as described in Experimental Example <3-1>. Then, the cultured cells were transferred into a serum free medium at the density of 1×10^5 cells/well. The cells were treated with the Bupleurum Root 90% ethanol extract prepared in Example <1-3>, saikosaponin A, saikosaponin B2, saikosaponin B4, or saikosaponin D at the concentration of 1.0 μg/ml, followed by culture for 4 hours. The cells were then treated with 100 ng/ml of lipopolysaccharide (LPS), followed by culture for 20 hours to induce inflammatory response. MTT assay was performed with the cells induced with inflammatory response by the same manner as described in Experimental Example <1-2>. The damage of mitochondria complex 1 was confirmed to see how the damage level was either increased or decreased, compared with the normal control group treated with DMSO without the extract or its active component. In the meantime, the negative control group was treated with 100 ng/ml of LPS alone to induce inflammatory response and was not treated with the extract or its active component. Then, MTT assay was performed by the same manner as described above.

[7] = tested on: BV2 cells; test: DCF-DA intracellular ROS, LPS-induced cells; assay type: cell-based, mouse; settings: BV2, treatment 1.0 μg/ml, inducer LPS 100 ng/ml
Experimental: Particularly, BV2 cells were cultured by the same manner as described in Experimental Example <3-1>, and inflammatory response was induced. Then, the cells induced with inflammatory response were treated with 1 μM DCF-DA and 0.05 μM bisbenzimide (Hoechst 33342), followed by staining at 37° C. for 1 hour. After the staining, the fluorescence intensity of DCF-DA was measured at 485 nm/535 nm, and the fluorescence intensity of bisbenzimide was measured at 335 nm/460 nm. Based on the ratio of DCF-DA/bisbenzimide, ROS was quantified. The amount of ROS, either increased or decreased, was compared with that of the normal control not treated with the extract or the active component thereof but treated with DMSO, and the results were presented as %. The negative control was treated with 100 ng/ml of LPS alone to induce inflammatory response but not treated with the extract or the active component thereof. Then, the generation of ROS was investigated by the same manner as described above.
(§2) Particularly, BV2 cells were cultured by the same manner as described in Experimental Example <3-1>, and inflammatory response was induced. Then, 100 μl of the cell culture medium was obtained, to which 100 μl of Griess reagent comprising hydrochloric acid containing 5% sulfanilamide and 2% naphthylethylenediamine was added, followed by reaction in a dark room for 30 minutes. Upon completion of the reaction, OD540 was measured with an EISA microplate reader (Versamax, USA). The concentration of nitric oxide in the medium was calculated using the standard calibration curve of sodium nitrite. To measure the ROS concentration, the cells were treated with 1 μM DCF-DA and 0.05 μM bisbenzimide (Hoechst 33342), followed by staining at 37° C. for 1 hour. After the staining, the fluorescence intensity of DCF-DA was measured at 485 nm/535 nm, and the fluorescence intensity of bisbenzimide was measured at 335 nm/460 nm. Based on the ratio of DCF-DA/bisbenzimide, ROS was quantified. The amount of ROS, either increased or decreased, was compared with that of the normal control not treated with the extract but treated with DMSO, and the results were presented as %. The negative control was treated with 100 ng/ml of LPS alone to induce inflammatory response but not treated with the extract or the active component thereof. Then, the nitric oxide concentration reduction effect and the ROS concentration reduction effect were investigated by the same manner as described above.

[8] = tested on: interleukin-6, (IL-6); test: RT-PCR of IL-6 mRNA, LPS-induced cells; assay type: cell-based, mouse; settings: BV2, treatment 1.0 μg/ml, LPS 100 ng/ml; negative control 100.00
Experimental: (§3) Particularly, BV2 cells were cultured by the same manner as described in Experimental Example <3-1>, and inflammatory response was induced. Then, RT-PCR was performed with the cells by the same manner as described in Experimental Example <1-4>, followed by quantitative analysis of the expression levels of iNOS, IL-6, and NF-kB p65/ReIA genes. The normal control was not treated with the extract of the invention or the active component thereof but treated with DMSO alone. The negative control was not treated with the extract or the active component but treated with 100 ng/ml of LPS alone to induce inflammatory response. Then, the expression of the inflammatory response marker gene was confirmed by the same manner as described above.

[9] = tested on: NF-kB p65/ReIA; test: RT-PCR of NF-kB p65/ReIA mRNA, LPS-induced cells; assay type: cell-based, mouse; settings: BV2, treatment 1.0 μg/ml, LPS 100 ng/ml; negative control 100.00
Experimental: as §3

[10] = tested on: BV2 cells; test: Griess method, nitric oxide in medium of LPS-induced cells; assay type: cell-based, mouse; settings: BV2, treatment 1.0 μg/ml, inducer LPS 100 ng/ml
Experimental: Particularly, BV2 cells were cultured by the same manner as described in Experimental Example <3-1>, and inflammatory response was induced. Then, 100 μl of the cell culture medium was obtained, to which 100 μl of Griess reagent comprising hydrochloric acid containing 5% sulfanilamide and 2% naphthylethylenediamine was added, followed by reaction in a dark room for 30 minutes. Upon completion of the reaction, OD540 was measured with an EISA microplate reader (Versamax, USA). The concentration of nitric oxide in the medium was calculated using the standard calibration curve of sodium nitrite. The normal control was not treated with the extract or the active component thereof but treated with DMSO. The negative control was treated with 100 ng/ml of LPS alone to induce inflammatory response but not treated with the extract or the active component. Then, the nitric oxide concentration reduction effect was investigated by the same manner as described above.
as §2

[11] = tested on: inducible nitric oxide synthase (iNOS); test: RT-PCR of iNOS mRNA, LPS-induced cells; assay type: cell-based, mouse; settings: BV2, treatment 1.0 μg/ml, LPS 100 ng/ml; negative control 100.00
Experimental: as §3

[12] = normal SH-SY5Y cells, 4 hours, calcein

| Structure (SMILES) | Park7(DJ-1)/18S rRNA ([1]; with atrazine) | Park7(DJ-1)/18S rRNA ([1]; without atrazine) | Intracellular ATP content (% of control) [2] | Cell survival rate (% of control) [3, 12] | MTT (% of control) [4] | COX III/18S rRNA ([5]; with atrazine) | COX III/18S rRNA ([5]; without atrazine) | Cell survival rate (% of control) ([3]; human, 4 h) | MTT (% of control) [6] | DCF-DA-ROS (% of control) [7] | IL-6 mRNA (% of control) [8] | p65/ReIA mRNA (% of control) [9] | NO [10] [µM] | iNOS mRNA (% of control) [11] |
| --- | --- | --- | --- | --- | --- | --- | --- | --- | --- | --- | --- | --- | --- | --- |
| COc1ccc(C(C)=O)c(O)c1 [Paeonol, 2′-Hydroxy-4′-methoxyacetophenone] | 0.95 ± 0.07 | 1.22 ± 0.08 | 101.9 ± 7.42 % of control | 102.2 ± 9.10 % of control | 101.8 ± 7.21 % of control | 1.07 ± 0.07 | 1.05 ± 0.03 | – | – | – | – | – | – | – |
| C[C@@]12CC(=O)[C@H]3C[C@]1(O)O[C@H](O2)[C@@H]3COC(=O)c1ccccc1 [paeoniflorigenone, [(2s,3as,5s,7ar,8s)-3a-hydroxy-7a-methyl-6-oxohexahydro-2,5-methano-1,3-benzodioxol-8-yl]methyl benzoate] | 0.45 ± 0.02 | 0.98 ± 0.08 | 89.1 ± 7.97 % of control | – | 95.5 ± 6.09 % of control | 0.86 ± 0.07 | 1.04 ± 0.05 | 98.9 ± 8.10 % of control | – | – | – | – | – | – |
| C[C@@]12C[C@@]3(O)O[C@@H](O1)[C@]1(COC(=O)c4ccccc4)[C@H]3C[C@@]12O[C@@H]1O[C@H](CO)[C@@H](O)[C@H](O)[C@H]1O [paeoniflorin] | 2.03 ± 0.07 | 1.05 ± 0.08 | 94.3 ± 6.44 % of control | 97.9 ± 7.34 % of control | 96.4 ± 7.44 % of control | 0.92 ± 0.08 | 1.11 ± 0.04 | – | – | – | – | – | – | – |
| C[C@H]1O[C@@H](O[C@H]2CC[C@@]3(C)[C@@H](CC[C@]4(C)[C@@H]3C=C[C@]35OC[C@@]6(CCC(C)(C)C[C@H]63)[C@@H](O)C[C@]54C)[C@]2(C)CO)[C@H](O)[C@@H](O[C@@H]2O[C@H](CO)[C@@H](O)[C@H](O)[C@H]2O)[C@H]1O [saikosaponin A, (3beta,4alpha,16beta)-13,28-Epoxy-16,23-dihydroxyolean-11-en-3-yl-6-deoxy-3-O-beta-D-glucopyranosyl-beta-D-galactopyranoside] | – | – | – | – | – | – | – | – | 91.49 ± 6.20 % of control | 198.24 ± 3.72 % of control | 18.05 ± 1.23 % of control | 40.38 ± 1.05 % of control | 10.8 ± 3.6 | 14.85 ± 1.47 % of control |

— patent US10660928B2, “Pharmaceutical composition containing combination extracts of Moutan Root Bark, Angelica Dahurica Root, bupleurum root or fractions thereof for prevention and treatment of neurodegenerative disorder” (UNIVERSITY-INDUSTRY COOPERATION GROUP OF KYUNG HEE …, priority 2014, dated 2020)
